Data published in the supplement of paper PMC12137928.
Structures can show the parent of a compound that is named as a salt.

Test system: HCT116
Settings: 72 h
Summary of the method: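 Luminescence was read with CellTiter-Glo in HCT116 cells seeded at 250 per well in 1536-well plates. Signals were scaled between vehicle at 0% and positive control at -100%, then pattern-corrected. IC50 and maximal efficacy were obtained by fitting a four-parameter Hill equation.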

With `CC(C)(C)NC(=O)[C@H]1CC[C@H]2[C@@H]3CC=C4C=C(C(=O)O)CC[C@]4(C)[C@H]3CC[C@]12C` [Epristeride] the IC50 cell viability (ICRF193 0 nM) was > 45.8 µM and the IC50 cell viability (ICRF193 200 nM) was > 45.8 µM.
`CCCCc1ncc(/C=C(\Cc2cccs2)C(=O)O)n1Cc1ccc(C(=O)O)cc1` [Eprosartan mesylate] was tested, and the IC50 cell viability (ICRF193 0 nM) was > 45.8 µM and the IC50 cell viability (ICRF193 200 nM) was > 45.8 µM.
In the case of `O=C(C1CCCCC1)N1CC(=O)N2CCCc3ccccc3C2C1` (configuration not stated) [Epsiprantel], the IC50 cell viability (ICRF193 0 nM) was > 45.8 µM and the IC50 cell viability (ICRF193 200 nM) was > 45.8 µM.
`N=C(N)NCCCC[C@@H]1NC(=O)CCSSC[C@@H](C(N)=O)NC(=O)[C@@H]2CCCN2C(=O)[C@H](Cc2c[nH]c3ccccc23)NC(=O)[C@H](CC(=O)O)NC(=O)CNC1=O` [Eptifibatide] was tested, and the IC50 cell viability (ICRF193 0 nM) was > 45.8 µM and the IC50 cell viability (ICRF193 200 nM) was > 45.8 µM.
For `O=C(O)CSCC(=O)NC1CCSC1=O` (configuration not stated) [Erdosteine], the IC50 cell viability (ICRF193 0 nM) was > 45.8 µM and the IC50 cell viability (ICRF193 200 nM) was > 45.8 µM.
In the case of `C[C@@H](CO)NC(=O)[C@@H]1C=C2c3cccc4[nH]cc(c34)C[C@H]2N(C)C1` [Ergobasine], the IC50 cell viability (ICRF193 0 nM) was > 45.8 µM and the IC50 cell viability (ICRF193 200 nM) was > 45.8 µM.
For `C[C@@H](O)[C@H]1C(=O)N2C(C(=O)O)=C(S[C@@H]3CN[C@H](C(=O)Nc4cccc(C(=O)O)c4)C3)[C@H](C)[C@H]12` [Ertapenem], the IC50 cell viability (ICRF193 0 nM) was > 45.8 µM and the IC50 cell viability (ICRF193 200 nM) was > 45.8 µM.
In the case of `CCC(=O)O[C@H]1[C@H](O[C@@H]2[C@@H](C)[C@H](O[C@H]3C[C@@](C)(OC)[C@@H](O)[C@H](C)O3)[C@@H](C)C(=O)O[C@H](CC)[C@@](C)(O)[C@H](O)[C@@H](C)C(=O)[C@H](C)C[C@@]2(C)O)O[C@H](C)C[C@@H]1N(C)C` [Erythromycin propionate], the IC50 cell viability (ICRF193 0 nM) was > 45.8 µM and the IC50 cell viability (ICRF193 200 nM) was > 45.8 µM.
For `O=C1OC2(c3ccccc31)c1cc(I)c(O)c(I)c1Oc1c2cc(I)c(O)c1I` [Erythrosin B], the IC50 cell viability (ICRF193 0 nM) was > 45.8 µM and the IC50 cell viability (ICRF193 200 nM) was > 45.8 µM.
`O=c1ccc2cc(O[C@@H]3O[C@H](CO)[C@@H](O)[C@H](O)[C@H]3O)c(O)cc2o1` [Esculin hydrate] was tested, and the IC50 cell viability (ICRF193 0 nM) was > 45.8 µM and the IC50 cell viability (ICRF193 200 nM) was > 45.8 µM.
In the case of `CC(=O)O[C@H]1Cc2ccccc2N(C(N)=O)c2ccccc21` [Eslicarbazepine (acetate)], the IC50 cell viability (ICRF193 0 nM) was > 45.8 µM and the IC50 cell viability (ICRF193 200 nM) was > 45.8 µM.
With `COC(=O)CCc1ccc(OCC(O)CNC(C)C)cc1` (configuration not stated) [Esmolol hydrochloride] the IC50 cell viability (ICRF193 0 nM) was > 45.8 µM and the IC50 cell viability (ICRF193 200 nM) was > 45.8 µM.
With `CC(=O)SCC(CC(=O)c1ccc(C)cc1)C(=O)O` (configuration not stated) [Esonarimod] the IC50 cell viability (ICRF193 0 nM) was > 45.8 µM and the IC50 cell viability (ICRF193 200 nM) was > 45.8 µM.
For `C[C@]12CC[C@@H]3c4ccc(O)cc4CC[C@H]3[C@@H]1CC[C@@H]2OC(=O)CCC1CCCC1` [Estradiol cypionate], the IC50 cell viability (ICRF193 0 nM) was > 45.8 µM and the IC50 cell viability (ICRF193 200 nM) was > 45.8 µM.
For `CCCCCCC(=O)O[C@H]1CC[C@H]2[C@@H]3CCc4cc(O)ccc4[C@H]3CC[C@]12C` [Estradiol enanthate], the IC50 cell viability (ICRF193 0 nM) was > 45.8 µM and the IC50 cell viability (ICRF193 200 nM) was > 45.8 µM.
`C[C@]12CC[C@@H]3c4ccc(OC(=O)N(CCCl)CCCl)cc4CC[C@H]3[C@@H]1CC[C@@H]2O` [Estramustine] was tested, and the IC50 cell viability (ICRF193 0 nM) was > 45.8 µM and the IC50 cell viability (ICRF193 200 nM) was > 45.8 µM.
`CC(=O)O[C@@H]1C[C@H]2[C@@H]3CCc4cc(OC(=O)c5ccccc5)ccc4[C@H]3CC[C@]2(C)[C@H]1OC(C)=O` [Estriol benzoate diacetate] was tested, and the IC50 cell viability (ICRF193 0 nM) was > 45.8 µM and the IC50 cell viability (ICRF193 200 nM) was > 45.8 µM.
With `CCC(=O)Oc1ccc2c(c1)CC[C@@H]1[C@@H]2CC[C@@]2(C)[C@H]1C[C@@H](OC(=O)CC)[C@@H]2OC(=O)CC` [Estriol tripropionate] the IC50 cell viability (ICRF193 0 nM) was > 45.8 µM and the IC50 cell viability (ICRF193 200 nM) was > 45.8 µM.
`C[C@]12CC[C@@H]3c4ccc(O)cc4CC[C@H]3[C@@H]1C[C@@H](O)[C@@H]2O` [Estriol] was tested, and the IC50 cell viability (ICRF193 0 nM) was > 45.8 µM and the IC50 cell viability (ICRF193 200 nM) was > 45.8 µM.
In the case of `C[C@]12CC[C@@H]3c4ccc(O)cc4CC[C@H]3[C@@H]1CCC2=O` [Estrone], the IC50 cell viability (ICRF193 0 nM) was > 45.8 µM and the IC50 cell viability (ICRF193 200 nM) was > 45.8 µM.
With `CN1CCN(C(=O)O[C@H]2c3nccnc3C(=O)N2c2ccc(Cl)cn2)CC1` [Eszopiclone] the IC50 cell viability (ICRF193 0 nM) was > 45.8 µM and the IC50 cell viability (ICRF193 200 nM) was > 45.8 µM.
For `CCN(C)C(C)C(O)c1ccccc1` (configuration not stated) [Etafedrine hydrochloride], the IC50 cell viability (ICRF193 0 nM) was > 45.8 µM and the IC50 cell viability (ICRF193 200 nM) was > 45.8 µM.
For `CCN(CC)CCOc1ccccc1C(=O)CCc1ccccc1` [Etafenone], the IC50 cell viability (ICRF193 0 nM) was > 45.8 µM and the IC50 cell viability (ICRF193 200 nM) was > 45.8 µM.
With `C=C(CC)C(=O)c1ccc(OCC(=O)O)c(Cl)c1Cl` [Ethacrynic acid] the IC50 cell viability (ICRF193 0 nM) was > 45.8 µM and the IC50 cell viability (ICRF193 200 nM) was > 45.8 µM.
In the case of `CC[C@@H](CO)NCCN[C@@H](CC)CO` [Ethambutol dihydrochloride], the IC50 cell viability (ICRF193 0 nM) was > 45.8 µM and the IC50 cell viability (ICRF193 200 nM) was > 45.8 µM.
In the case of `C#CC(O)(/C=C/Cl)CC` (configuration not stated) [Ethchlorvynol], the IC50 cell viability (ICRF193 0 nM) was > 45.8 µM and the IC50 cell viability (ICRF193 200 nM) was > 45.8 µM.
In the case of `CCC1Nc2cc(Cl)c(S(N)(=O)=O)cc2S(=O)(=O)N1` (configuration not stated) [Ethiazide], the IC50 cell viability (ICRF193 0 nM) was > 45.8 µM and the IC50 cell viability (ICRF193 200 nM) was > 45.8 µM.
`CCc1cc(C(N)=S)ccn1` [Ethionamide] was tested, and the IC50 cell viability (ICRF193 0 nM) was > 45.8 µM and the IC50 cell viability (ICRF193 200 nM) was > 45.8 µM.
For `CCOC(=O)C1(c2ccccc2)CCCN(C)CC1` (configuration not stated) [Ethoheptazine hydrochloride], the IC50 cell viability (ICRF193 0 nM) was > 45.8 µM and the IC50 cell viability (ICRF193 200 nM) was > 45.8 µM.
With `CCN(CC)C(C)CN1c2ccccc2Sc2ccccc21` (configuration not stated) [Ethopropazine hydrochloride] the IC50 cell viability (ICRF193 0 nM) was > 45.8 µM and the IC50 cell viability (ICRF193 200 nM) was > 45.8 µM.
`CCC1(C)CC(=O)NC1=O` (configuration not stated) [Ethosuximide] was tested, and the IC50 cell viability (ICRF193 0 nM) was > 45.8 µM and the IC50 cell viability (ICRF193 200 nM) was > 45.8 µM.
